Test [1] deals with Transgenic T2 Arabidopsis plants and ARBTH WT MC24 non-transgenic. Nature of the test: Greenhouse post spray test, injury 14 DAT (Tables ii, iii).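 On all read-outs here: value is percent injury to the sprayed plants.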 Type of test: in vivo, Arabidopsis thaliana. Particulars: Arabidopsis thaliana, 336 h, Table ii; for pest or weed control at 50 g/ha: 50 g ai/ha; for pest or weed control at 100 g/ha: 100 g ai/ha; for pest or weed control at 200 g/ha: 200 g ai/ha.

Test [2] relates to Transgenic T2 Arabidopsis plants harboring PPO inhibitor tolerance trait. Nature of the test: Lab based germination assay in 48-well plates (Table i). Type of test: in vivo, Arabidopsis thaliana. To be noted: construct AMATU_PPO2_TP_hemG (Escherichia coli); in comparison to wild type plants.
Test [3] has as its system Variant PPO Enzyme R128A, F420V (Amaranthus PPO2). Put plainly: biochemical. Type of test: biochemical. To be noted: variant R128A, F420V vs wild type.
The test system of test [4] is Variant PPO Enzyme F420M (Amaranthus PPO2). Nature of the test: biochemical. Particulars: variant F420M vs wild type. In kind it is biochemical.
The target of test [5] is Wild Type PPO Enzyme (Amaranthus PPO2, SEQ ID NO: 1) (Amaranthus tuberculatus, UniProt Q0NZW9). Nature of the test: PPO enzyme assay (recombinant), wild type. Type of test: biochemical.
Wild Type PPO Enzyme (Amaranthus PPO2, SEQ ID NO: 1), sequence (Q0NZW9 1-534): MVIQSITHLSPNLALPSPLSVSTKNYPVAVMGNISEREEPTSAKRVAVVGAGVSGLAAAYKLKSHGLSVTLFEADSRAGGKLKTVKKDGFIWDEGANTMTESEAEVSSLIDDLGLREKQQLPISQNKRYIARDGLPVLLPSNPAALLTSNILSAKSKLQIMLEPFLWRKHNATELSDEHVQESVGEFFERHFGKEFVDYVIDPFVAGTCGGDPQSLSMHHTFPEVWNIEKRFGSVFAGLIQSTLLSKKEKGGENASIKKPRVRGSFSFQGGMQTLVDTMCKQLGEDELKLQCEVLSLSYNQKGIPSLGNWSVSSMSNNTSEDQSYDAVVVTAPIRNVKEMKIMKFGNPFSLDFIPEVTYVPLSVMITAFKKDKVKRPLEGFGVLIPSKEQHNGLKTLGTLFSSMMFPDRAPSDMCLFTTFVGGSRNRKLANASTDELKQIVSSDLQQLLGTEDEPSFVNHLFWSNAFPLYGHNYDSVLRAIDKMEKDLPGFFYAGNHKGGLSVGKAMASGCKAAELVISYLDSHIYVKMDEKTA
Test [6] has as its system Variant PPO Enzyme R128A, F420M (Amaranthus PPO2). Type of test: biochemical. Particulars: variant R128A, F420M vs wild type.
The test system of test [7] is Variant PPO Enzyme L397E, F420M (Amaranthus PPO2). Type of test: biochemical. Particulars: variant L397E, F420M vs wild type.
Where [8] appears, read: AMATU_PPO2_WT event Q, 1 g ai/ha.
Where [9] appears, read: AMATU_PPO2_WT event Q, 5 g ai/ha.
[10] abbreviates: AMATU_PPO2_WT event Q, 10 g ai/ha.
Setting [11] is: AMATU_PPO2_WT event Q, 30 g ai/ha.
Where [12] appears, read: ARBTH WT MC24 non-transgenic, 1 g ai/ha + 1% MSO.
Where [13] appears, read: ARBTH WT MC24 non-transgenic, 5 g ai/ha + 1% MSO.
The mark [14] stands for this setting: ARBTH WT MC24 non-transgenic, 10 g ai/ha + 1% MSO.
Setting [15] is: ARBTH WT MC24 non-transgenic, 30 g ai/ha + 1% MSO.
The mark [16] stands for this setting: ARBTH WT MC24 non-transgenic, 80 g ai/ha + 1% MSO.
Where [17] appears, read: ARBTH_PPO1_S305L_Y426M event O, 5 g ai/ha.
Where [18] appears, read: ARBTH_PPO1_S305L_Y426M event O, 10 g ai/ha.
Setting [19] is: ARBTH_PPO1_S305L_Y426M event O, 30 g ai/ha.
Where [20] appears, read: ARBTH_PPO1_S305L_Y426M event O, 80 g ai/ha.
The mark [21] stands for this setting: ARBTH_PPO1_WT event Q, 1 g ai/ha.
Setting [22] is: ARBTH_PPO1_WT event Q, 5 g ai/ha.
[23] abbreviates: ARBTH_PPO1_WT event Q, 10 g ai/ha.
Setting [24] is: ARBTH_PPO1_WT event Q, 30 g ai/ha.

The pest or weed control is the degree to which the test organism was suppressed or injured, in per cent. Take `Cn1c(C(F)(F)F)cc(=O)n(-c2nc(Oc3ccccc3OCC(=O)O)c(Cl)cc2F)c1=O` [Uracilpyridine 5, 2-[2-[[3-chloro-5-fluoro-6-[3-methyl-2,6-dioxo-4-(trifluoromethyl)pyrimidin-1-yl]-2-pyridyl]oxy]phenoxy]acetic acid]: the pest or weed control at 1 g/ha in test [1] (setting [8]) amounted to 28%; in test [1] (setting [12]), 100%; in test [1] (setting [21]) it was 45%. In addition, the pest or weed control at 5 g/ha in test [1] (setting [9]) came to 90%; in test [1] (setting [13]) it was 100%; in test [1] (setting [17]), 0%; in test [1] (setting [22]), 90%. The pest or weed control at 10 g/ha was 100% in test [1] (setting [10]), 100% in test [1] (setting [14]), 0% in test [1] (setting [18]) and 99% in test [1] (setting [23]). Further, the pest or weed control at 30 g/ha in test [1] (setting [11]) was found to be 100%; in test [1] (setting [15]) it was 100%; in test [1] (setting [19]), 68%; in test [1] (setting [24]), 100%. The pest or weed control at 80 g/ha in test [1] (setting [16]) came to 100%; in test [1] (setting [20]), 73%. Further, the “Tolerance Factor” value in test [2] is on record as 1400.

With `Cn1c(C(F)(F)F)cc(=O)n(-c2nc(Oc3cccnc3OCC(=O)O)c(Cl)cc2F)c1=O` [Uracilpyridine 3, 2-[[3-[[3-chloro-5-fluoro-6-[3-methyl-2,6-dioxo-4-(trifluoromethyl)pyrimidin-1-yl]-2-pyridyl]oxy]-2-pyridyl]oxy]acetic acid], the pest or weed control at 1 g/ha in test [1] (setting [8]) was found to be 48%; in test [1] (setting [12]), 88%; in test [1] (setting [21]), 10%. Further, the pest or weed control at 5 g/ha was 80% in test [1] (setting [9]), 100% in test [1] (setting [13]), 0% in test [1] (setting [17]) and 83% in test [1] (setting [22]). Further, the pest or weed control at 10 g/ha in test [1] (setting [10]) stood at 100%; in test [1] (setting [14]), 100%; in test [1] (setting [18]), 0%; in test [1] (setting [23]) it was 98%. In addition, the pest or weed control at 30 g/ha in test [1] (setting [11]) came out at 100%; in test [1] (setting [15]), 100%; in test [1] (setting [19]), 49%; in test [1] (setting [24]), 100%. Also, the pest or weed control at 80 g/ha was 100% in test [1] (setting [16]) and 13% in test [1] (setting [20]). Moreover, the “Tolerance Factor” value in test [2] was 1600.

One may read the IC50 as the concentration that inhibits the measured activity by half. On to `CCOC(=O)COc1ccccc1Oc1nc(-n2c(=O)cc(C(F)(F)F)n(C)c2=O)c(F)cc1F` [Uracilpyridine 8, ethyl 2-[2-[[3,5-difluoro-6-[3-methyl-2,6-dioxo-4-(trifluoromethyl)pyrimidin-1-yl]-2-pyridyl]oxy]phenoxy]acetate], for which the “Tolerance Factor (R/S)” value in test [3] is reported as 4531; in test [4] it was 139. Also, the pest or weed control at 1 g/ha was 10% in test [1] (setting [8]), 88% in test [1] (setting [12]) and 10% in test [1] (setting [21]). Moreover, the pest or weed control at 5 g/ha in test [1] (setting [9]) turned out to be 55%; in test [1] (setting [13]), 100%; in test [1] (setting [17]), 0%; in test [1] (setting [22]), 30%. Besides, the pest or weed control at 10 g/ha in test [1] (setting [10]) amounted to 100%; in test [1] (setting [14]) it was 100%; in test [1] (setting [18]), 0%; in test [1] (setting [23]) it was 55%. The pest or weed control at 30 g/ha in test [1] (setting [11]) amounted to 100%; in test [1] (setting [15]) it was 100%; in test [1] (setting [19]), 0%; in test [1] (setting [24]) it was 100%. Further, the results for the pest or weed control at 80 g/ha in test [1] (setting [16]) and in test [1] (setting [20]) were 100% and 0%, respectively. In test [2], the “Tolerance Factor” value is on record as 8202. Further, in test [5], the IC50 came to 0.496 nM.

As to `Cn1c(C(F)(F)F)cc(=O)n(-c2nc(Oc3ccccc3OCC(=O)NS(C)(=O)=O)c(Cl)cc2F)c1=O` [Uracilpyridine 10, 2-[2-[[3-chloro-5-fluoro-6-[3-methyl-2,6-dioxo-4-(trifluoromethyl)pyrimidin-1-yl]-2-pyridyl]oxy]phenoxy]-N-methylsulfonyl-acetamide], the “Tolerance Factor (R/S)” value in test [6] came out at 7879; in test [7] it was 30714. The pest or weed control at 50 g/ha is 0% in test [1] (ALOMY_PPO2_R137L_F438V event F); 0% in test [1] (ALOMY_PPO2_R137L_F438V event G); 0% in test [1] (AMATU_PPO2_L397E_F420V event D); 8% in test [1] (AMATU_PPO2_L397E_F420V event L); 38% in test [1] (AMATU_PPO2_R128A_F420V event A); 30% in test [1] (AMATU_PPO2_R128A_F420V event D). Moreover, the pest or weed control at 100 g/ha was found to be 8% in test [1] (ALOMY_PPO2_R137L_F438V event F); 0% in test [1] (ALOMY_PPO2_R137L_F438V event G); 5% in test [1] (AMATU_PPO2_L397E_F420V event D); 53% in test [1] (AMATU_PPO2_L397E_F420V event L); 53% in test [1] (AMATU_PPO2_R128A_F420V event A); 78% in test [1] (AMATU_PPO2_R128A_F420V event D). Besides, the pest or weed control at 200 g/ha in test [1] (ALOMY_PPO2_R137L_F438V event F) turned out to be 10%; in test [1] (ALOMY_PPO2_R137L_F438V event G) it was 5%; in test [1] (AMATU_PPO2_L397E_F420V event D), 13%; in test [1] (AMATU_PPO2_L397E_F420V event L) it was 20%; in test [1] (AMATU_PPO2_R128A_F420V event A) it was 68%; in test [1] (AMATU_PPO2_R128A_F420V event D), 88%. The pest or weed control at 1 g/ha in test [1] (setting [8]) was found to be 58%; in test [1] (setting [12]), 100%; in test [1] (setting [21]), 50%. The pest or weed control at 5 g/ha in test [1] (setting [9]) worked out at 100%; in test [1] (setting [13]) it was 100%; in test [1] (setting [17]) it was 10%; in test [1] (setting [22]) it was 98%. The pest or weed control at 10 g/ha in test [1] (setting [10]) stood at 100%; in test [1] (setting [14]), 100%; in test [1] (setting [18]), 8%; in test [1] (setting [23]) it was 100%. Moreover, the pest or weed control at 30 g/ha in test [1] (setting [11]) was 100%; in test [1] (setting [15]) it was 100%; in test [1] (setting [19]), 99%; in test [1] (setting [24]), 100%. Moreover, the pest or weed control at 80 g/ha in test [1] (setting [16]) was determined as 100%; in test [1] (setting [20]), 99%. Moreover, in test [5], the IC50 turned out to be 0.212 nM.

The values above are taken from patent US12123010B2, “Plants having increased tolerance to herbicides” (BASF SE, priority 2017, dated 2024).
